Test results: ChEMBL document CHEMBL4428091, “Design and optimization of (3-aryl-1H-indazol-6-yl)spiro[cyclopropane-1,3'-indolin]-2'-ones as potent PLK4 inhibitors with oral antitumor efficacy” (Bioorg Med Chem Lett, 2016)

Experiments:
[1] = Oral bioavailability in rat at 5 mg/kg; type: ADME, organism-based; settings: in vivo
[2] = Clearance in rat at 1 mg/kg, iv; type: ADME, organism-based; settings: in vivo
[3] = Half life in mouse microsomes; type: ADME, Microsome
[4] = Lipophilicity, log D of the compound at pH 7.4; type: physicochemical; settings: buffer
CYP2C9 = CYP2C9 (Homo sapiens, UniProt P11712); assay: Inhibition of CYP2C9 (unknown origin) at 1 uM; type: ADME
CYP2C9, sequence (P11712 whole entry): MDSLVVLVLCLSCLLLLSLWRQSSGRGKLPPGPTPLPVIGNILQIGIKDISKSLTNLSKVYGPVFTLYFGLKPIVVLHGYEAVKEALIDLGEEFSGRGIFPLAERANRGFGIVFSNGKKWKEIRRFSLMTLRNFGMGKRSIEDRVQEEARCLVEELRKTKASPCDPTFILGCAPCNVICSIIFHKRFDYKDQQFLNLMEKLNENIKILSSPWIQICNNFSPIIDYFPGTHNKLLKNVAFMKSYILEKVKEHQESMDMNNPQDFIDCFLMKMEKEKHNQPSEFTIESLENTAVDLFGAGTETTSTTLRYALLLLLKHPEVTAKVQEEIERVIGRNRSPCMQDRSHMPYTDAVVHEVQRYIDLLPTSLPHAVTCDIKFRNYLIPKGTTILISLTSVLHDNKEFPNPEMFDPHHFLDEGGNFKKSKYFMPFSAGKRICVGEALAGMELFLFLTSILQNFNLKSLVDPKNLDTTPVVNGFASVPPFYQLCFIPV

[5] = AUC in rat at 5 mg/kg, po; type: ADME, organism-based; settings: in vivo
[6] = Cmax in mouse at 25 mg/kg, po; type: ADME, organism-based; design: dose 25 mg/kg, route oral; settings: in vivo, BLD = below limit of detection
[7] = AUC in rat at 1 mg/kg, iv; type: ADME, organism-based; settings: in vivo
[8] = Half life in rat at 1 mg/kg, iv; type: ADME, organism-based; settings: in vivo
[9] = Half life in human microsomes; type: ADME, Microsome
CYP2C19 = CYP2C19 (Homo sapiens, UniProt P33261); assay: Inhibition of CYP2C19 (unknown origin) at 1 uM; type: ADME
CYP2C19, sequence (P33261 whole entry): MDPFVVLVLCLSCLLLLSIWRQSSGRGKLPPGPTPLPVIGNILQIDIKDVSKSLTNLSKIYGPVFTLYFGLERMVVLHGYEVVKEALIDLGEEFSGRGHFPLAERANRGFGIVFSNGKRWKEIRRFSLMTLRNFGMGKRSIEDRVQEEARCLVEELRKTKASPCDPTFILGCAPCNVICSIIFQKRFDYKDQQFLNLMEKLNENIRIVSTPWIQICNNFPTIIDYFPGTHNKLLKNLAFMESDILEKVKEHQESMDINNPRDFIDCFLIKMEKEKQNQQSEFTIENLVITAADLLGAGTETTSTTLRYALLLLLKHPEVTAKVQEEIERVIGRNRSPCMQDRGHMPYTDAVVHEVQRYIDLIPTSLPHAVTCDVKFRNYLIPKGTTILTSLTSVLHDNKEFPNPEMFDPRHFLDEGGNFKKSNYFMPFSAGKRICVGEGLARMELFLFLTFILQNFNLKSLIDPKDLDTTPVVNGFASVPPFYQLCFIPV

CYP3A4 = CYP3A4 (Homo sapiens, UniProt P08684); assay: Inhibition of CYP3A4 (unknown origin) at 1 uM; type: ADME
CYP3A4, sequence (P08684 whole entry): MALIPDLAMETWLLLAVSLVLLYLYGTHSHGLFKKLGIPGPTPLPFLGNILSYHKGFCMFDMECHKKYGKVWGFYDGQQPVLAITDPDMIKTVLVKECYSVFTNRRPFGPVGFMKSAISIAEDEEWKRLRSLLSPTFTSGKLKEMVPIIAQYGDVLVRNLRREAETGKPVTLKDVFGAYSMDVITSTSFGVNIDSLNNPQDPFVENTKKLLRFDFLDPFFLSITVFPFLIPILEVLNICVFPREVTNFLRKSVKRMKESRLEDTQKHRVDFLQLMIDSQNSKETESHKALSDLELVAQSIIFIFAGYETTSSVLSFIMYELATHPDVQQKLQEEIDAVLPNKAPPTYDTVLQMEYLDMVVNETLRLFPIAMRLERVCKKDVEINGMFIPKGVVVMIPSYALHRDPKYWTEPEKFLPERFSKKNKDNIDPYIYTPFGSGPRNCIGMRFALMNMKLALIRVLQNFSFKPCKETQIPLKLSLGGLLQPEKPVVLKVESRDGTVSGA

[10] = target: T1, Receptor-type tyrosine-protein kinase FLT3 (Homo sapiens, UniProt P36888); assay: Inhibition of FLT3 (unknown origin)
T1 sequence (P36888 whole entry): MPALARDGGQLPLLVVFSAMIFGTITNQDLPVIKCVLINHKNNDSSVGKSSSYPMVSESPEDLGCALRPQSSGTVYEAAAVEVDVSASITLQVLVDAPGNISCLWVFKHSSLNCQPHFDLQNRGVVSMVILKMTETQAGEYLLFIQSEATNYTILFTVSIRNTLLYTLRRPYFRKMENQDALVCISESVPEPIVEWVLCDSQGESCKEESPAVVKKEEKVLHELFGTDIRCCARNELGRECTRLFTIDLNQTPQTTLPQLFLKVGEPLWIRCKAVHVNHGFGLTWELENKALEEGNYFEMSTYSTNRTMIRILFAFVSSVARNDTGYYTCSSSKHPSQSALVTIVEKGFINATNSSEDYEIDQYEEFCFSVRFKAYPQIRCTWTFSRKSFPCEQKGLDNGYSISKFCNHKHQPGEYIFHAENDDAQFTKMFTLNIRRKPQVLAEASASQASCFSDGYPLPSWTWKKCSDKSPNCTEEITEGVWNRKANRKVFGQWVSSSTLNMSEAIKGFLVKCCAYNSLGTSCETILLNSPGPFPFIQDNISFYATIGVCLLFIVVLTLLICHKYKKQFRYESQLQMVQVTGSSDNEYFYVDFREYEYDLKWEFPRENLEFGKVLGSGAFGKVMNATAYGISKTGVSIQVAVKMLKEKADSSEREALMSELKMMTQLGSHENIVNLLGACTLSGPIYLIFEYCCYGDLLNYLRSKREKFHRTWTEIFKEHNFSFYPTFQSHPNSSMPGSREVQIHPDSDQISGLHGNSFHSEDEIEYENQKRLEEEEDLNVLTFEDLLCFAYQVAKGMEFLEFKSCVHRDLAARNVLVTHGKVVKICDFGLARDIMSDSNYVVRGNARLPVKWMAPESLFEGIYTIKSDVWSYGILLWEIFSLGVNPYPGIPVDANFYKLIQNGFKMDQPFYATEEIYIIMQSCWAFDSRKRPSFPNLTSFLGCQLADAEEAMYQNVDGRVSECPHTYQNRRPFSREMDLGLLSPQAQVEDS

MDA-MB-468 = assay: Growth inhibition of human MDA-MB-468 cells; type: functional
[11] = target: T2, Serine/threonine-protein kinase PLK4 (Homo sapiens, UniProt O00444); assay: Inhibition of PLK4 (unknown origin)
T2 sequence (O00444 whole entry): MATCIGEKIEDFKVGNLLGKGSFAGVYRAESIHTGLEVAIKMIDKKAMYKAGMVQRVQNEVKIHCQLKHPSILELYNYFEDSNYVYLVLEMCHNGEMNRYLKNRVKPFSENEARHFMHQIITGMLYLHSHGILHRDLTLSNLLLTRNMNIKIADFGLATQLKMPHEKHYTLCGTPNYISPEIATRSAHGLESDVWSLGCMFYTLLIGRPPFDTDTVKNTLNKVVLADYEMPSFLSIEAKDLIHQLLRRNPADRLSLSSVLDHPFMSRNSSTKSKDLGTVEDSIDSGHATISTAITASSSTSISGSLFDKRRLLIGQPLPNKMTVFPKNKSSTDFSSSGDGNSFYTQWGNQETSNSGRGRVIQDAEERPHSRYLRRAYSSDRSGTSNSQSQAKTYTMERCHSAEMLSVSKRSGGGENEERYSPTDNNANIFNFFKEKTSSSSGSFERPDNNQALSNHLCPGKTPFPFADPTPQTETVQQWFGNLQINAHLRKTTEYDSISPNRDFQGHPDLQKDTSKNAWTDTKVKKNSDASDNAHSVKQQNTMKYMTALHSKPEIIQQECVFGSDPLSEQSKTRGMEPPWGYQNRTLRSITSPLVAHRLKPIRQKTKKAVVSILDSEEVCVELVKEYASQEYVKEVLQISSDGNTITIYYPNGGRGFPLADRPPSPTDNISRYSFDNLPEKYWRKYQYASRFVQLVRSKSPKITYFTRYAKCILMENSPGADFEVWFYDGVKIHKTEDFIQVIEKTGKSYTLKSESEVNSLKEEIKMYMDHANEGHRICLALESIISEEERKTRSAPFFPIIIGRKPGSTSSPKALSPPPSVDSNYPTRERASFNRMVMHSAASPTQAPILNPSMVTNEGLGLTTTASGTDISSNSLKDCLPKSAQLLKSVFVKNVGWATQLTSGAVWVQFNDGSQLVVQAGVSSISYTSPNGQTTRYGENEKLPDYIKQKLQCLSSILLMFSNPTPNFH

Aurora kinase A = target: T3, Aurora kinase A (Homo sapiens, UniProt O14965); assay: Inhibition of AURKA (unknown origin)
T3 sequence (O14965 whole entry): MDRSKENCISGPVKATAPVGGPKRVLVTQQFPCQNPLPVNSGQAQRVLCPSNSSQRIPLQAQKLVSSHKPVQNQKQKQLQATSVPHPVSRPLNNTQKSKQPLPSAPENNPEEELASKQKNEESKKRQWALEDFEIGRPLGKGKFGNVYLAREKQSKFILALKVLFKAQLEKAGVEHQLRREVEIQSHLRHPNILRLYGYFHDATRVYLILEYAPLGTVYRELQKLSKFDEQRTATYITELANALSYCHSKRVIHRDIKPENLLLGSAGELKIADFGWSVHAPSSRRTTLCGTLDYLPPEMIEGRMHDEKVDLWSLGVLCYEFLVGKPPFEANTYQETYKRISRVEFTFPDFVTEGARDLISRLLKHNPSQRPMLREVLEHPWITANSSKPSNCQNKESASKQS

[12] = target: Vascular endothelial growth factor receptor 2 (Homo sapiens, UniProt P35968); assay: Inhibition of KDR (unknown origin)
Vascular endothelial growth factor receptor 2, sequence (P35968 whole entry): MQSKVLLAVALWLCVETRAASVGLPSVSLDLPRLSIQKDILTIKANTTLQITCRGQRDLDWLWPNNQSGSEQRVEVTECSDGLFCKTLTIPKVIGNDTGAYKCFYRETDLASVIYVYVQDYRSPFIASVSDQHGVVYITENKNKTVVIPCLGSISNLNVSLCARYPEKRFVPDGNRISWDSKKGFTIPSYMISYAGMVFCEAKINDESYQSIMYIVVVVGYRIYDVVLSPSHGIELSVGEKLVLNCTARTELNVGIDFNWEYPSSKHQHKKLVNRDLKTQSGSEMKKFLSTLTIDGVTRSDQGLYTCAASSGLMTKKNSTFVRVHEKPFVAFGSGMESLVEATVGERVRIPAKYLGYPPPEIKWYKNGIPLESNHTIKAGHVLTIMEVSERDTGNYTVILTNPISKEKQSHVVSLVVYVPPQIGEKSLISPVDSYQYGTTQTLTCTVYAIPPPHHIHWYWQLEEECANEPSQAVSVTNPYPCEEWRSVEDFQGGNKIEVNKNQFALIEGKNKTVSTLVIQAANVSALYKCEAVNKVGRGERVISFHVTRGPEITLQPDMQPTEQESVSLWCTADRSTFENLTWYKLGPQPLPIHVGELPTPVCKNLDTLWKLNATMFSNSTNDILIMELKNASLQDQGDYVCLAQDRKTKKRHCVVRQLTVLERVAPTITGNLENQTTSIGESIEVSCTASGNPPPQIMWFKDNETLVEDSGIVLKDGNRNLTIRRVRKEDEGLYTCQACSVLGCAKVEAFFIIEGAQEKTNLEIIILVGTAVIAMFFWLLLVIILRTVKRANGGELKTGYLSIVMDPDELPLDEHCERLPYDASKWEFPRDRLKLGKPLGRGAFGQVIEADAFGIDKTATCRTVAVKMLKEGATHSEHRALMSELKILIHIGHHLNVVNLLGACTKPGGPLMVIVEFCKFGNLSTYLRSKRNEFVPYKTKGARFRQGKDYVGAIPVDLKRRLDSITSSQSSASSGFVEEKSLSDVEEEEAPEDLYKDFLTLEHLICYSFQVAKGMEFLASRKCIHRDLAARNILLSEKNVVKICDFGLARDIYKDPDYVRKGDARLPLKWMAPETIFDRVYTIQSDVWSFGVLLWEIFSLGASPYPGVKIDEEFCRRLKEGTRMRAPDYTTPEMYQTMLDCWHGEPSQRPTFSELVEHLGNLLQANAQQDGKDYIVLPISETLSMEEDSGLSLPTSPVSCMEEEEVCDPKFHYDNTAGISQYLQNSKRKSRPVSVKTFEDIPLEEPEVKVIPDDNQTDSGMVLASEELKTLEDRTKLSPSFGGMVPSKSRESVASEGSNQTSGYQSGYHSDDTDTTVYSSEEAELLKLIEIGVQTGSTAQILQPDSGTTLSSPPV

HCC1954 = assay: Growth inhibition of human HCC1954; type: functional
Aurora kinase B = Aurora kinase B (Homo sapiens, UniProt Q96GD4); assay: Inhibition of AURKB (unknown origin)
Aurora kinase B, sequence (Q96GD4 whole entry): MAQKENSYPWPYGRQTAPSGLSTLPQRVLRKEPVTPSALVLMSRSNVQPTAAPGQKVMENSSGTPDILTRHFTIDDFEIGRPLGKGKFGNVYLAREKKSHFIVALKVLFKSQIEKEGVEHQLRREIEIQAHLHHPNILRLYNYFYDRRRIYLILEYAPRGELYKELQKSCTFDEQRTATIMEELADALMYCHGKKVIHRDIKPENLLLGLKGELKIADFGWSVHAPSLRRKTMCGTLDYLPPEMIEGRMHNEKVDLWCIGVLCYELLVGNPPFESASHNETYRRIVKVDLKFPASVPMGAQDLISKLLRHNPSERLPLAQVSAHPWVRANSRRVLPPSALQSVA

MCF7 = assay: Growth inhibition of human MCF7; type: functional

CN1CCN(c2ccc(/C=C/c3n[nH]c4cc(/C=C5/C(=O)Nc6ccccc65)ccc34)cn2)CC1
bioavailability [1]: < 1% | clearance [2]: 107 mL/min/kg | half-life [3]: 4 min | logD [4]: 4.5 | inhibition at 1 µM (CYP2C9): 67% | AUC ([5]; BLD = below limit of detection): Bld | Cmax [6]: Bld | AUC [7]: 170 ng·h/mL | half-life [8]: 306 min | half-life [9]: 24 min | inhibition at 1 µM (CYP2C19): 83% | inhibition at 1 µM (CYP3A4): 55%

O=C1Nc2ccccc2/C1=C\c1ccc2cn[nH]c2c1
IC50 [10]: 49 nM | GI50 (MDA-MB-468): 4600 nM

COc1ccc2c(c1)[C@]1(C[C@H]1c1ccc3c(/C=C/c4ccc(N5CCN(C)CC5)nc4)n[nH]c3c1)C(=O)N2
bioavailability [1]: 15% | clearance [2]: 51.7 mL/min/kg | half-life [3]: 9 min | logD [4]: 4.2 | inhibition at 1 µM (CYP2C9): 73% | AUC ([5]; read-out: AUC): 250 ng·h/mL | AUC [7]: 330 ng·h/mL | half-life [8]: 144 min | half-life [9]: 16 min | inhibition at 1 µM (CYP2C19): 93% | inhibition at 1 µM (CYP3A4): 76%

COc1ccc2c(c1)C(=Cc1ccc3c(-c4ccc(N5CCN(C)CC5)nc4)n[nH]c3c1)C(=O)N2
bioavailability [1]: 2% | clearance [2]: 178 mL/min/kg | IC50 [11]: 2.4 nM | IC50 (Aurora kinase A): 700 nM | half-life [3]: 4 min | logD [4]: 3.5 | inhibition at 1 µM (CYP2C9): 60% | AUC ([5]; read-out: AUC): 24 ng·h/mL | IC50 [10]: 28 nM | IC50 [12]: 0.63 µM | GI50 (HCC1954): 5.9 µM | IC50 (Aurora kinase B): 35 nM | GI50 (MDA-MB-468): 1300 to 3700 nM | AUC [7]: 94 ng·h/mL | GI50 (MCF7): 5.4 µM | half-life [8]: 78 min | half-life [9]: 13 min | inhibition at 1 µM (CYP2C19): 64% | inhibition at 1 µM (CYP3A4): 19%

CN1CCN(c2ccc(-c3n[nH]c4cc(C=C5C(=O)Nc6ccccc65)ccc34)cn2)CC1
IC50 [11]: 13 nM | IC50 [10]: 17 nM | GI50 (MDA-MB-468): 1300 nM

O=C1Nc2ccccc2C1=Cc1ccc2c(-c3ccc[nH]3)n[nH]c2c1
IC50 [11]: 64 nM | IC50 [10]: 50 nM | GI50 (MDA-MB-468): 7700 nM

O=C1Nc2ccccc2C1=Cc1ccc2c(-c3cc4ccccc4[nH]3)n[nH]c2c1
IC50 [11]: 540 nM

O=C1Nc2ccccc2/C1=C\c1ccc2c(-c3nccs3)n[nH]c2c1
IC50 [11]: 490 nM | IC50 [10]: 72 nM

COc1ccc2c(c1)[C@@]1(C[C@@H]1c1ccc3c(-c4ccc(N5CCN(C)CC5)nc4)n[nH]c3c1)C(=O)N2
IC50 [11]: 30 nM | IC50 (Aurora kinase A): > 1000 nM | IC50 [10]: 6500 nM | IC50 [12]: > 50 µM | GI50 (HCC1954): 5.9 µM | IC50 (Aurora kinase B): 2100 nM | GI50 (MDA-MB-468): 3700 nM | GI50 (MCF7): 5.4 µM

CN1CCN(c2ccc(-c3n[nH]c4cc([C@@H]5C[C@@]56C(=O)Nc5ccc(F)cc56)ccc34)cn2)CC1
IC50 [10]: 98 nM | GI50 (MDA-MB-468): 600 nM

COc1ccc2c(c1)[C@]1(C[C@H]1c1ccc3c(-c4ccc(N5CCNCC5)cc4)n[nH]c3c1)C(=O)N2
IC50 [11]: 0.45 nM | IC50 (Aurora kinase A): > 1000 nM | half-life [3]: > 60 min | logD [4]: 2.6 | IC50 [10]: 44 nM | IC50 [12]: 5.6 µM | GI50 (HCC1954): 3.6 µM | IC50 (Aurora kinase B): 6.9 nM | GI50 (MDA-MB-468): < 10 nM | Cmax [6]: Bld | GI50 (MCF7): < 0.01 µM | half-life [9]: 59 min

O=C1Nc2ccccc2C1=Cc1ccc2c(-c3ccncc3)n[nH]c2c1
IC50 [11]: 220 nM | IC50 [10]: 120 nM | GI50 (MDA-MB-468): 9900 nM

O=C1Nc2ccccc2C1=Cc1ccc2c(-c3cccnc3)n[nH]c2c1
IC50 [11]: 29 nM | IC50 [10]: 27 nM | GI50 (MDA-MB-468): 5000 nM

COc1ccc2c(c1)[C@]1(C[C@H]1c1ccc3c(-c4ccnc(N5CCN(C)CC5)c4)n[nH]c3c1)C(=O)N2 (racemic)
IC50 [11]: 2.1 nM | IC50 [10]: 320 nM | GI50 (MDA-MB-468): 380 nM

COc1ccc2c(c1)[C@]1(C[C@H]1c1ccc3c(-c4ccc(N5CCC(O)CC5)nc4)n[nH]c3c1)C(=O)N2 (racemic)
IC50 [10]: 240 nM | GI50 (MDA-MB-468): 890 nM

COc1ccc2c(c1)[C@]1(C[C@H]1c1ccc3c(-c4ccc(N5CCN(C)CC5)nc4)n[nH]c3c1)C(=O)N2 (racemic)
IC50 [11]: 1 nM | IC50 [10]: 260 nM | GI50 (MDA-MB-468): 120 nM

CN1CCN(c2ccc(-c3n[nH]c4cc([C@@H]5C[C@@]56C(=O)Nc5ccccc56)ccc34)cn2)CC1 (racemic)
IC50 [11]: 54 nM | IC50 [10]: 200 nM | GI50 (MDA-MB-468): 770 nM

COc1ccc2c(c1)[C@]1(C[C@H]1c1ccc3c(-c4ccc(N5CCOCC5)nc4)n[nH]c3c1)C(=O)N2 (racemic)
IC50 [10]: 1200 nM | GI50 (MDA-MB-468): 670 nM
